Results reported in patent US8541573B2, “Substituted sulfonamide compounds” (Gruenenthal GmbH, priority 2008, dated 2013).
Structures can show the parent of a compound that is named as a salt.

Key:
[1] = target: T1, human B1R (Homo sapiens, UniProt P46663); assay: Functional investigation on the bradykinin 1 receptor (B1R), cell-based fluorescent calcium-mobilization assay (FLIPR/Novostar), human; conditions: 10 μM test substance, CHO K1 cells stably transfected with human B1R gene, agonist Lys-Des-Arg9-bradykinin at EC80, % inhibition compared with maximum achievable inhibition; for inhibition at 10 µM: read-out: B1R antagonism, human [10 μM] % inhibition
T1 construct: expressed in transfected cells; host or cells: CHO K1 cells
T1 sequence (P46663 1-353): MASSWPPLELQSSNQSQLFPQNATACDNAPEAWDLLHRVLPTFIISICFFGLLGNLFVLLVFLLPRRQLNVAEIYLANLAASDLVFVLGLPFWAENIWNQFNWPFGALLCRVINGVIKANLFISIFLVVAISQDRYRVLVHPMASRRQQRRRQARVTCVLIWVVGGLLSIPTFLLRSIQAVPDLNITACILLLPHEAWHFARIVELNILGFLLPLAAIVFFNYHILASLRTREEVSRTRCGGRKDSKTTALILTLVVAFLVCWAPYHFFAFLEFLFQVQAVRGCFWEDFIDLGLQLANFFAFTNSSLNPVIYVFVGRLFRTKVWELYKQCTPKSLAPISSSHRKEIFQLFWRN
How it was run: (§1)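 Stably transfected CHO K1 cells loaded with Fluo-4-AM; fluorescence peak read by FLIPR/Novostar (ex 488, em 540 nm). Test compounds at 10 μM give % activation vs Lys-Des-Arg9-BK (human) or Des-Arg9-BK (rat); after 6-20 min, agonist added at EC80 and % inhibition vs maximum achievable inhibition derived.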

[2] = target: T2, B1R of rats (Rattus norvegicus, UniProt P97583); assay: Functional investigation on the bradykinin 1 receptor (B1R), cell-based fluorescent calcium-mobilization assay (FLIPR/Novostar), rat; conditions: 10 μM test substance, CHO K1 cells stably transfected with rat B1R gene, agonist Des-Arg9-bradykinin at EC80, % inhibition compared with maximum achievable inhibition; for inhibition at 10 µM: read-out: B1R antagonism, rat [10 μM] % inhibition
T2 construct: expressed in transfected cells; host or cells: CHO K1 cells
T2 sequence (P97583 1-337): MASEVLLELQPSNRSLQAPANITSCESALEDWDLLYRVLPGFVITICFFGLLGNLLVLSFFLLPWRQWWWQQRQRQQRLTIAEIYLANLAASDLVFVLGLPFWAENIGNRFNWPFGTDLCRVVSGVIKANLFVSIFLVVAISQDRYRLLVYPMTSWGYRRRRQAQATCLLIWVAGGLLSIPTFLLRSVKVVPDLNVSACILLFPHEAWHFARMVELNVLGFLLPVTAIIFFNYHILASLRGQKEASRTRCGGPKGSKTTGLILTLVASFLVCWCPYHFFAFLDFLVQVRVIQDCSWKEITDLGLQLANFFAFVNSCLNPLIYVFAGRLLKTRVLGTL
How it was run: as §1

inhibition at 10 µM [1]	inhibition at 10 µM [2]	B1R antagonism, human [10 μM] % inhibition ([1]; hydrochloride, 10 µM)	B1R antagonism, rat [10 μM] % inhibition ([2]; hydrochloride, 10 µM)	Compound
97%	96%			COc1cc(C)c(S(=O)(=O)N(CCOCC(=O)N2CCC(CN3Cc4ccccc4C3=O)(N3CCN(C4CC4)CC3)CC2)C2CC2)c(C)c1 [Example 42, N-Cyclopropyl-N-(2-(2-(4-(4-cyclopropylpiperazin-1-yl)-4-((1-oxoisoindolin-2-yl)methyl)piperidin-1-yl)-2-oxoethoxy)ethyl)-4-methoxy-2,6-dimethylbenzenesulfonamide]
100%	103%			Cc1cccc(Cl)c1S(=O)(=O)N(CCOCC(=O)N1CCC(CNC(=O)c2ccncc2)(N2CCN(C3CC3)CC2)CC1)C1CC1 [Example 43, N-((1-(2-(2-(2-Chloro-N-cyclopropyl-6-methylphenylsulfonamido)ethoxy)-acetyl)-4-(4-cyclopropylpiperazin-1-yl)piperidin-4-yl)methyl)-isonicotinamide]
100%	102%			COc1cc(C)c(S(=O)(=O)N(CCOCC(=O)N2CCC(CNC(=O)c3ccncc3)(N3CCN(C4CC4)CC3)CC2)C2CC2)c(C)c1 [Example 44, N-((1-(2-(2-(N-Cyclopropyl-4-methoxy-2,6-dimethylphenylsulfonamido)ethoxy)acetyl)-4-(4-cyclopropylpiperazin-1-yl)piperidin-4-yl)methyl)isonicotinamide]
100%	102%			COc1cc(C)c(S(=O)(=O)N2c3ccccc3C[C@H]2COCC(=O)N2CCC(CNC(=O)c3ccncc3)(N3CCN(C4CC4)CC3)CC2)c(C)c1 [Example 45, (S)—N-((4-(4-Cyclopropylpiperazin-1-yl)-1-(2-((1-(4-methoxy-2,6-dimethylphenylsulfonyl)indolin-2-yl)methoxy)acetyl)piperidin-4-yl)methyl)isonicotinamide]
100%	101%			COc1cc(C)c(S(=O)(=O)N(CCOCC(=O)N2CCC(CNC(C)=O)(N3CCN(c4ccncc4)CC3)CC2)C2CC2)c(C)c1 [Example 46, N-((1-(2-(2-(N-Cyclopropyl-4-methoxy-2,6-dimethylphenylsulfonamido)ethoxy)acetyl)-4-(4-(pyridin-4-yl)piperazin-1-yl)piperidin-4-yl)methyl)acetamide]
100%	99%			O=C(NCC1(N2CCN(C3CC3)CC2)CCN(C(=O)COCCN(C2CC2)S(=O)(=O)c2ccccc2C(F)(F)F)CC1)c1ccncc1 [Example 47, N-((1-(2-(2-(N-Cyclopropyl-2-(trifluoromethyl)phenylsulfonamido)ethoxy)acetyl)-4-(4-cyclopropylpiperazin-1-yl)piperidin-4-yl)methyl)isonicotinamide]
		100%	97%	COc1cc(C)c(S(=O)(=O)N(C)CCOCC(=O)N2CCC(CNC(=O)c3ccncc3)(N3CCN(C)CC3)CC2)c(C)c1 [Example 48, N-((1-(2-(2-(4-Methoxy-N,2,6-trimethylphenylsulfonamido)ethoxy)acetyl)-4-(4-methylpiperazin-1-yl)piperidin-4-yl)methyl)isonicotinamide hydrochloride]
100%	102%			COc1cc(C)c(S(=O)(=O)N2c3ccccc3OCC2COCC(=O)N2CCC(CNC(=O)c3ccncc3)(N3CCN(C)CC3)CC2)c(C)c1 (stereo not shown) [Example 49, N-((1-(2-((4-(4-Methoxy-2,6-dimethylphenylsulfonyl)-3,4-dihydro-2H-benzo[b][1,4]oxazin-3-yl)methoxy)acetyl)-4-(4-methylpiperazin-1-yl)piperidin-4-yl)methyl)isonicotinamide]
96%	102%			Cc1cccc(Cl)c1S(=O)(=O)N1c2ccccc2OCC1COCC(=O)N1CCC(CNC(=O)c2ccncc2)(N2CCN(C)CC2)CC1 (stereo not shown) [Example 50, N-((1-(2-((4-(2-Chloro-6-methylphenylsulfonyl)-3,4-dihydro-2H-benzo[b][1,4]oxazin-3-yl)methoxy)acetyl)-4-(4-methylpiperazin-1-yl)piperidin-4-yl)methyl)isonicotinamide]
100%	103%			COc1cc(C)c(S(=O)(=O)N(C)CCOCC(=O)N2CCC(CNC(=O)c3ccncc3)(N3CCN(C)CC3)CC2)c(C)c1C [Example 51, N-((1-(2-(2-(4-Methoxy-N,2,3,6-tetramethylphenylsulfonamido)ethoxy)acetyl)-4-(4-methylpiperazin-1-yl)piperidin-4-yl)methyl)isonicotinamide]
100%	102%			COc1cc(C)c(S(=O)(=O)N2CCCCC2COCCC(=O)N2CCC(CNC(=O)c3ccncc3)(N3CCN(C)CC3)CC2)c(C)c1 (stereo not shown) [Example 52, N-((1-(3-((1-(4-Methoxy-2,6-dimethylphenylsulfonyl)piperidin-2-yl)methoxy)propanoyl)-4-(4-methylpiperazin-1-yl)piperidin-4-yl)methyl)isonicotinamide]
